Reference: US20100144853A1, “NOVEL COMBINED ADMINISTRATION” (priority 2008, published 2010)

Legend:
Assay type in all cases: in vitro ADME
Lipase from Hog Pancreas [1] = assay: Stability of COMPOUND A with Lipase, with and without COMPOUND B (Example 1); conditions: 0.55 mg/mL (11 U/mL) Lipase
Description: (a) FeSSIF (Fed State Simulated Intestinal Fluid) and phosphate buffered saline solution:
(b) Stock A=drug solution (0.5 mg/mL):
5 mg of thioisobutyric acid S-(2-{[1-(2-ethyl-butyl)-cyclohexanecarbonyl]-amino}-phenyl)ester (COMPOUND A) were dissolved in 50 μL ethanol and 950 μL mixed micelles Soybean lecithin/Sodium glycocholate (158/97 mg/mL) in water were added. One part of the mixture was diluted with 9 parts of phosphate buffered saline solution at pH 6.5.
(c) Stock B=esterase inhibitor solution (1.0 mg/mL)
5 mg 1-(3-hexyl-4-oxo-oxetan-2-yl)tridecan-2-yl 2-formyl-amino-4-methyl-pentanoate (COMPOUND B) were dissolved in 250 μL ethanol. 4.75 mL mixed micelles soybean lecithin/sodium glycocholate (30/80.6 mg/mL) were added to give a solution of 1 mg/mL COMPOUND B.
(d) Stock C=Lipase in phosphate buffered saline solution (PBS) pH 6.5 (example given at 24 mg/mL, with a final enzyme activity of about 450 U/mL)
(§1) 240 mg Lipase (Lipase from Hog Pancreas, 20.6 U/mg Lipase, CAS No. 9001-62-1, Fluka, Art. No. 62300) were weighed into a vial and dissolved by stirring in 10 mL phosphate buffered saline solution pH 6.5. Any undissolved material was removed by centrifugation during 5 min at 5000 rpm. The supernatant was used for the experiments and diluted with PBS to obtain the Lipase at the final concentration of 0.55 mg/mL.
[…] To this, 200 μL of drug solution (stock A) were injected at time zero. The mixture was incubated at 37° C., while mixing gently with a rotating shaker at about 2 rpm. At regular intervals 200 μL samples were taken and diluted immediately with 600 μL of isopropanol. The combined solution/suspension was centrifuged during 5 min at 3000 rpm and the concentration of COMPOUND A as well as its potential degradation products were determined in the supernatant by HPLC analysis.
To obtain the value at time zero, 600 μL of isopropanol were added to 180 μL of a 0.55 mg/mL Lipase in a phosphate buffered saline solution to inhibit the enzymes followed by the addition of 20 μL of drug solution (stock A).

Lipase from Hog Pancreas [2] = assay: Stability of COMPOUND A with Lipase, Procedure A (premix of Lipase and COMPOUND B, then COMPOUND A); conditions: 10 min, 0.55 mg/mL (11 U/mL) Lipase
Description: as §1
Procedure A (Premix of Lipase and COMPOUND B, Followed by Addition of Compound A):
1600 μL of Lipase in phosphate buffered saline solution (from stock C) to obtain a final enzyme concentration of 0.55 mg/mL) were mixed with 200 μL of COMPOUND B (stock B) and pre-incubated during 5 min at 37° C. At time zero 200 μL of drug solution (stock A) were added. The mixture was incubated at 37° C. After 10 min, the reaction was stopped by dilution of one part of the mixture with 3 parts of isopropanol.

Lipase from Hog Pancreas [3] = assay: Stability of COMPOUND A with Lipase, Procedure B (premix of COMPOUND B and COMPOUND A, then Lipase); conditions: 10 min, 0.55 mg/mL (11 U/mL) Lipase
Description: as §1
Procedure B (Premix of COMPOUND B and COMPOUND A, Followed by Addition of Lipase):
100 μL of drug solution (stock A) were mixed with 0, 12, 25 or 50 μL esterase inhibitor solution (stock B) and 100, 88, 75 or 50 μL of FeSSIF concentrate (Lecithin37.5 mM and Sodium taurocholate 150 mM) were added to make up 200 μL of a solution with COMPOUND B concentrations of 0, 12, 25 or 50 μg/mL. At time zero, 800 μL of Lipase in phosphate buffered saline solution (from stock C to obtain final enzyme concentrations of 0.55 mg/mL) were added. The reaction mixture was incubated at 37° C. and stopped after 10 minutes by diluting one part of the reaction mixture with 3 parts Isopropanol.

[4] = Stability of COMPOUND A in human intestinal fluids, Procedure D (in solution), fasted; conditions: fasted intestinal fluid
Description: Procedure D (COMPOUND A and COMPOUND B in Solution):
Fasted Intestinal Fluids: the fluids from 4 different subjects were collected with a naso-jejunal tube after fasting overnight and pooled.
5 mg of thioisobutyric acid S-(2-{[1-(2-ethyl-butyl)-cyclohexanecarbonyl]-amino}-phenyl)ester (COMPOUND A) were dissolved in 50 μL ethanol and 950 μL mixed micelles solution containing Soybean lecithin/Sodium glycocholate (158/97 mg/mL) in water were added.
3 mg of 1-(3-hexyl-4-oxo-oxetan-2-yl)tridecan-2-yl 2-formyl-amino-4-methyl-pentanoate (COMPOUND B) were dissolved in 1 mL of ethanol. 100 μL of this solution was diluted with 900 μL of FeSSIF concentrate (10×).
100 μL of drug solution (stock D) were mixed with 100 μL of esterase inhibitor solution (stock E) and 800 μL of pro-FaSSIF were added.
100 μL of premix (stock F) were mixed with 200 μL of drug solution (stock A).
200 μL of premix (stock F) were mixed with 100 μL of drug solution (stock A). 315 μL of intestinal fluids (fasted and stimulated) were pre-heated at 37° C. for about 5 min. At time zero, 35 μL of premix solutions were added, i.e. either stock A, stock G, stock H or stock F, to obtain 50 μg/mL of COMPOUND A and final concentrations of COMPOUND B of 0, 1, 2 or 3 μg/mL. The samples were incubated at 37° C. while gently stirring. The reaction was stopped after 2 min or after 10 min by dilution of 1 part of the reaction mixture with 3 parts of isopropanol and the resulting mixture was centrifuged for 5 min at 5′000 rpm. The supernatant was analyzed by HPLC.

Concentration of COMPOUND A (Lipase from Hog Pancreas [1]; +100 μg/mL COMPOUND B, 5 min): 48200 ng/mL | Concentration of COMPOUND A (Lipase from Hog Pancreas [1]; +100 μg/mL COMPOUND B, 10 min): 48200 ng/mL | Concentration of COMPOUND A (Lipase from Hog Pancreas [1]; +100 μg/mL COMPOUND B, 15 min): 48200 ng/mL | Concentration of COMPOUND A (Lipase from Hog Pancreas [1]; +100 μg/mL COMPOUND B, 20 min): 48000 ng/mL | Concentration of COMPOUND A (Lipase from Hog Pancreas [1]; +100 μg/mL COMPOUND B, 30 min): 48300 ng/mL | Concentration of COMPOUND A (Lipase from Hog Pancreas [1]; +100 μg/mL COMPOUND B, 60 min): 40100 ng/mL | Concentration of COMPOUND A (Lipase from Hog Pancreas [1]; time 0 min (column +100 μg/mL COMPOUND B), theoretical 50 μg/mL): 46900 ng/mL | Concentration of COMPOUND A (Lipase from Hog Pancreas [1]; w/o COMPOUND B, 5 min): 27200 ng/mL | Concentration of COMPOUND A (Lipase from Hog Pancreas [1]; w/o COMPOUND B, 10 min): 14700 ng/mL | Concentration of COMPOUND A (Lipase from Hog Pancreas [1]; w/o COMPOUND B, 15 min): 7300 ng/mL | Concentration of COMPOUND A (Lipase from Hog Pancreas [1]; w/o COMPOUND B, 20 min): 4100 ng/mL | Concentration of COMPOUND A (Lipase from Hog Pancreas [1]; w/o COMPOUND B, 30 min): <100 ng/mL | Concentration of COMPOUND A (Lipase from Hog Pancreas [1]; w/o COMPOUND B, 60 min): <100 ng/mL | Concentration of COMPOUND A (Lipase from Hog Pancreas [2]; COMPOUND B 0 μg/mL): 14700 ng/mL | Concentration of COMPOUND A (Lipase from Hog Pancreas [2]; COMPOUND B 50 μg/mL): 46400 ng/mL | Concentration of COMPOUND A (Lipase from Hog Pancreas [2]; COMPOUND B 100 μg/mL): 48200 ng/mL | Concentration of COMPOUND A (Lipase from Hog Pancreas [3]; COMPOUND B 0 μg/mL): 23000 ng/mL | Concentration of COMPOUND A (Lipase from Hog Pancreas [3]; COMPOUND B 12 μg/mL): 46400 ng/mL | Concentration of COMPOUND A (Lipase from Hog Pancreas [3]; COMPOUND B 25 μg/mL): 46500 ng/mL | Concentration of COMPOUND A (Lipase from Hog Pancreas [3]; COMPOUND B 50 μg/mL): 46100 ng/mL | Concentration of COMPOUND A ([4]; COMPOUND B 0 μg/mL, 2 min, theoretical 50 μg/mL): 480 ng/mL | Concentration of COMPOUND A ([4]; COMPOUND B 0 μg/mL, 10 min): 480 ng/mL | Concentration of COMPOUND A ([4]; COMPOUND B 1 μg/mL, 2 min): 18000 ng/mL | Concentration of COMPOUND A ([4]; COMPOUND B 1 μg/mL, 10 min): 1580 ng/mL | Concentration of COMPOUND A ([4]; COMPOUND B 2 μg/mL, 2 min): 36910 ng/mL | Concentration of COMPOUND A ([4]; COMPOUND B 2 μg/mL, 10 min): 28590 ng/mL | Concentration of COMPOUND A ([4]; COMPOUND B 3 μg/mL, 2 min): 43720 ng/mL | Concentration of COMPOUND A ([4]; COMPOUND B 3 μg/mL, 10 min): 37240 ng/mL
Structure (SMILES): CCC(CC)CC1(C(=O)Nc2ccccc2SC(=O)C(C)C)CCCCC1 [COMPOUND A, thioisobutyric acid S-(2-{[1-(2-ethyl-butyl)-cyclohexanecarbonyl]-amino}-phenyl)ester]
